Measurements reported in USRE30241E, “Esters of 3-(hydroxy or hydroxymethyl)-4-hydroxyphenyl aminomethyl ketones” (Sterling Drug Inc., priority 1970, dated 1980).
Read-outs that look alike come from different tables or passages of the source.

Legend:
[1] = test system: carbachol- or histamine-induced bronchoconstriction; assay: Bronchodilator Test Method I, anesthetized dog, intravenous activity; assay type: in vivo; settings: Canis lupus familiaris, read-out: Bronchodilatation; for inhibition in vivo at 0.005 mg/kg: 5 mcg/kg i.v.; for inhibition in vivo at 0.02 mg/kg: 20 mcg/kg i.v.; for inhibition in vivo at 0.08 mg/kg: 80 mcg/kg i.v.; for inhibition in vivo at 0.025 mg/kg: 25 mcg/kg i.v.; for inhibition in vivo at 0.1 mg/kg: 100 mcg/kg i.v.; for inhibition in vivo at 0.00025 mg/kg: 0.25 mcg/kg i.v.; for inhibition in vivo at 0.001 mg/kg: 1 mcg/kg i.v.; for inhibition in vivo at 0.004 mg/kg: 4 mcg/kg i.v.
Procedure, shortened: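 Pentobarbital-anesthetized (30 mg/kg i.v.), open-chest, artificially ventilated dogs were given i.v. carbachol (4-6 µg/kg) or histamine diphosphate (35-45 µg/kg). Test compound was given i.v. mixed with, after, or 1-10 min before the constrictor.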

[2] = test system: heart rate; assay: Cardiovascular studies: effect on the heart rate in the anesthetized dog; assay type: in vivo
Procedure: The effect of a rapid intravenous injection on the heart rate the heart rate was conducted in anesthetized dogs under normal respiration. A few open-chest dogs were also tested. Increase in heart rate was measured by using an electrocardiograph attached to the dog. Readings were taken every 0.5-1 minute for the first 10 minutes and every 2-5 minutes thereafter until recovery. In some cases, several doses and more than one compound were tested alternately in the same dog. The blood pressure effect was simultaneously recorded.

[3] = test system: carbachol- or histamine-induced bronchoconstriction; assay: Bronchodilator Test Method I, anesthetized dog, intraduodenal activity; assay type: in vivo; settings: Canis lupus familiaris, read-out: Bronchodilation; for inhibition in vivo at 0.025 mg/kg: 25 mcg/kg (salt) intraduodenal; for inhibition in vivo at 0.05 mg/kg: 50 mcg/kg (salt) intraduodenal
Procedure, shortened: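 Pentobarbital-anesthetized (30 mg/kg i.v.) open-chest dogs of 9-18 kg, artificially ventilated; airway pressure recorded via tracheal cannula transducer. Test solution injected intraduodenally; from 5 min, i.v. carbachol (4-6 μg/kg) or histamine diphosphate (35-45 μg/kg) challenges every 30-60 min gauged degree and duration of bronchodilation.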

[4] = test system: guinea pig bronchioles constricted by carbachol; assay: Bronchodilator Test Method II, in vitro perfused guinea pig lung
Procedure: In this method bronchodilator activity in vitro was determined by testing the effect of graded doses of the test compounds on guinea pig bronchioles constricted by carbachol, using the technique reported by Sollman and von Oettingen, Proc. Soc, Exp. Biol. Med., 25,692 (1928) as modified by Tainter, Pedden, and James, J. Pharm. Exp. Ther., 51, 371 (1934) and by Luduena, von Euler, Tullar, and Lands, Arch. intern. Pharmacol., III, 392 (1957).

With CC(C)(C)NCC(O)c1ccc(OC(=O)C(C)(C)C)c(COC(=O)C(C)(C)C)c1 (stereo not drawn) [Example 135, 3-(pivalyloxymethyl)-4-(pivaloxy)-alpha-(tert-butylaminomethyl)benzyl alcohol methanesulfonate] the inhibition in vivo at 0.005 mg/kg ([1]; 5 min, 5 min) was 18%, the inhibition in vivo at 0.02 mg/kg ([1]; 5 min, 5 min) was 30% and the inhibition in vivo at 0.08 mg/kg ([1]; 5 min, 5 min) was 38%. It also gave an inhibition in vivo at 0.005 mg/kg ([1]; 0.5 h, 30 min) of 32%, an inhibition in vivo at 0.02 mg/kg ([1]; 0.5 h, 30 min) of 49% and an inhibition in vivo at 0.08 mg/kg ([1]; 0.5 h, 30 min) of 64%. For the same molecule, the inhibition in vivo at 0.005 mg/kg ([1]; 1 h, 60 min) was 36%, the inhibition in vivo at 0.02 mg/kg ([1]; 1 h, 60 min) was 50% and the inhibition in vivo at 0.08 mg/kg ([1]; 1 h, 60 min) was 62%. For the same molecule, the inhibition in vivo at 0.005 mg/kg ([1]; 2 h, 120 min) was 26%, the inhibition in vivo at 0.02 mg/kg ([1]; 2 h, 120 min) was 56% and the inhibition in vivo at 0.08 mg/kg ([1]; 2 h, 120 min) was 66%. For the same molecule, the inhibition in vivo at 0.02 mg/kg ([1]; 3 h, 180 min) was 50%, the inhibition in vivo at 0.08 mg/kg ([1]; 3 h, 180 min) was 62% and the inhibition in vivo at 0.02 mg/kg ([1]; 4 h, 240 min) was 45%. It also gave an inhibition in vivo at 0.08 mg/kg ([1]; 4 h, 240 min) of 56%, an inhibition in vivo at 0.02 mg/kg ([1]; 5 h, 300 min) of 36% and an inhibition in vivo at 0.08 mg/kg ([1]; 5 h, 300 min) of 49%. For the same molecule, the “Mean Maximal Increase in the Heart Rate” value ([2]; 0.25 mcg/kg (salt) i.v.) was 5 Beats/Minute, the “Mean Maximal Increase in the Heart Rate” value ([2]; 1 mcg/kg (salt) i.v.) was 10 Beats/Minute and the “Mean Maximal Increase in the Heart Rate” value ([2]; 8 mcg/kg (salt) i.v.) was 17 Beats/Minute. The inhibition in vivo at 0.025 mg/kg ([3]; 5 min, 5 min) was 18%, the inhibition in vivo at 0.05 mg/kg ([3]; 5 min, 5 min) was 31% and the inhibition in vivo at 0.05 mg/kg ([3]; 0.5 h, 30 min) was 56%. The inhibition in vivo at 0.025 mg/kg ([3]; 1 h, 60 min) was 56%, the inhibition in vivo at 0.05 mg/kg ([3]; 1 h, 60 min) was 74% and the inhibition in vivo at 0.025 mg/kg ([3]; 2 h, 120 min) was 55%. The inhibition in vivo at 0.05 mg/kg ([3]; 2 h, 120 min) was 73%, the inhibition in vivo at 0.025 mg/kg ([3]; 3 h, 180 min) was 45% and the inhibition in vivo at 0.05 mg/kg ([3]; 3 h, 180 min) was 64%. For the same molecule, the inhibition in vivo at 0.025 mg/kg ([3]; 4 h, 240 min) was 34%, the inhibition in vivo at 0.05 mg/kg ([3]; 4 h, 240 min) was 51% and the inhibition in vivo at 0.025 mg/kg ([3]; 5 h, 300 min) was 27%. It also gave an inhibition in vivo at 0.05 mg/kg ([3]; 5 h, 300 min) of 37% and an inhibition in vivo at 0.05 mg/kg ([3]; 6 h, after 6 hrs.) of 36%.
Cc1cccc(C(=O)Oc2ccc(C(O)CNC(C)(C)C)cc2O)c1 (stereo not drawn) [Example 139, 3-hydroxy-4-(m-toluyloxy)-alpha-(tert-butylaminomethyl)benzyl alcohol methanesulfonate] was tested, and the ED50 ([4]; carbachol (Doryl) 1:5 million) was 2.64 µg (base), the “Duration, Mean” value ([4]; dose 6 mcg (base)) was 29.8 ± 4.4 min and the inhibition in vivo at 0.025 mg/kg ([1]; 5 min, 5 min) was 81%. The inhibition in vivo at 0.1 mg/kg ([1]; 5 min, 5 min) was 74%, the inhibition in vivo at 0.025 mg/kg ([1]; 0.5 h, 30 min) was 22% and the inhibition in vivo at 0.1 mg/kg ([1]; 0.5 h, 30 min) was 63%. For the same molecule, the inhibition in vivo at 0.025 mg/kg ([1]; 1 h, 60 min) was 24%, the inhibition in vivo at 0.1 mg/kg ([1]; 1 h, 60 min) was 22% and the inhibition in vivo at 0.025 mg/kg ([1]; 2 h, 120 min) was 0%. The inhibition in vivo at 0.1 mg/kg ([1]; 2 h, 120 min) was 25%, the inhibition in vivo at 0.1 mg/kg ([1]; 3 h, 180 min) was 9% and the inhibition in vivo at 0.1 mg/kg ([1]; 5 h, 300 min) was 10%. The “Mean Maximal Increase in the Heart Rate” value ([2]; 5 mcg/kg (salt) i.v.) was 6 Beats/Minute, the “Mean Maximal Increase in the Heart Rate” value ([2]; 25 mcg/kg (salt) i.v.) was 28 Beats/Minute and the “Mean Maximal Increase in the Heart Rate” value ([2]; 50 mcg/kg (salt) i.v.) was 35 Beats/Minute.
CC(C)(C)NCC(O)c1ccc(O)c(CO)c1 (stereo not drawn) [Ref. Cpd. III, 3-Hydroxymethyl-4-hydroxy-alpha-(tert-butylaminomethyl)benzyl alcohol, reference compound] was tested, and the inhibition in vivo at 0.00025 mg/kg ([1]; 5 min, 5 min) was 18%, the inhibition in vivo at 0.001 mg/kg ([1]; 5 min, 5 min) was 31% and the inhibition in vivo at 0.004 mg/kg ([1]; 5 min, 5 min) was 65%. For the same molecule, the inhibition in vivo at 0.00025 mg/kg ([1]; 0.5 h, 30 min) was 0%, the inhibition in vivo at 0.001 mg/kg ([1]; 0.5 h, 30 min) was 14% and the inhibition in vivo at 0.004 mg/kg ([1]; 0.5 h, 30 min) was 24%. It also gave an inhibition in vivo at 0.001 mg/kg ([1]; 1 h, 60 min) of 3%, an inhibition in vivo at 0.004 mg/kg ([1]; 1 h, 60 min) of 18% and an inhibition in vivo at 0.004 mg/kg ([1]; 2 h, 120 min) of 0%. The “Mean Maximal Increase in the Heart Rate” value ([2]; 0.25 mcg/kg (salt) i.v.) was 9 Beats/Minute, the “Mean Maximal Increase in the Heart Rate” value ([2]; 1 mcg/kg (salt) i.v.) was 15 Beats/Minute and the “Mean Maximal Increase in the Heart Rate” value ([2]; 4 mcg/kg (salt) i.v.) was 34 Beats/Minute. It also gave an inhibition in vivo at 0.025 mg/kg ([3]; 10 min, 10 min) of 45%, an inhibition in vivo at 0.05 mg/kg ([3]; 10 min, 10 min) of 13% and an inhibition in vivo at 0.05 mg/kg ([3]; 0.5 h, 30 min) of 42%. For the same molecule, the inhibition in vivo at 0.025 mg/kg ([3]; 1 h, 60 min) was 51%, the inhibition in vivo at 0.05 mg/kg ([3]; 1 h, 60 min) was 56% and the inhibition in vivo at 0.025 mg/kg ([3]; 2 h, 120 min) was 43%. It also gave an inhibition in vivo at 0.05 mg/kg ([3]; 2 h, 120 min) of 71%, an inhibition in vivo at 0.025 mg/kg ([3]; 3 h, 180 min) of 0% and an inhibition in vivo at 0.05 mg/kg ([3]; 3 h, 180 min) of 53%. The inhibition in vivo at 0.05 mg/kg ([3]; 4 h, 240 min) was 34% and the inhibition in vivo at 0.05 mg/kg ([3]; 5 h, 300 min) was 6%.
